# From US7244738B2, “Arylamine-substituted quinazolinone compounds useful as alpha 1A/B adrenergic receptor antagonists” (Roche Palo Alto LLC, priority 2003, dated 2007)
# Structures can show the parent of a compound that is named as a salt.
row,SMILES,melting point [°C]
1,"COCCN(C)Cc1cccc(CN(C)c2nc(=O)c3c(OC)c(OC)c(OC)cc3[nH]2)c1 (as salt: hydrochloride) [Example 117, 5,6,7-Trimethoxy-2-[(3-{[(2-methoxy-ethyl)-methyl-amino]-methyl}-benzyl)-methyl-amino]-1H-quinazolin-4-one]",162.9 to 164.5
2,"COc1cc2[nH]c(N(C)Cc3ccc4c(c3)CN(C)C4)nc(=O)c2c(OC)c1OC [Example 45, 5,6,7-Trimethoxy-2-[methyl-(2-methyl-2,3-dihydro-1H-isoindol-5-ylmethyl)-amino]-1H-quinazolin-4-one]",165.5 to 166.5
3,"C=CCN1Cc2ccc(CN(C)c3nc(=O)c4c(OC)c(OC)c(OC)cc4[nH]3)cc2C1 [Example 13, 2-[(2-Allyl-2,3-dihydro-1H-isoindol-5-ylmethyl)-methyl-amino]-5,6,7-trimethoxy-1H-quinazolin-4-one]",133.7 to 136.6
4,"COc1cc2[nH]c(N(C)Cc3cccc(CN4CCCC4)c3)nc(=O)c2c(OC)c1OC [Example 46, 5,6,7-Trimethoxy-2-[methyl-(3-pyrrolidin-1-ylmethyl-benzyl)-amino]-1H-quinazolin-4-one]",127 to 129.9
5,"COc1cc2[nH]c(N(C)Cc3ccc(CN)cc3)nc(=O)c2c(C)c1OC (as salt: HCl) [Example 42, 2-[(4-Aminomethyl-benzyl)-methyl-amino]-6,7-dimethoxy-5-methyl-1H-quinazolin-4-one]",248.2 to 249.4
6,"COCC(=O)N(C)Cc1cccc(CN(C)c2nc(=O)c3c(C)c(OC)c(OC)cc3[nH]2)c1 [Example 119, N-(3-{[(6,7-Dimethoxy-5-methyl-4-oxo-1,4-dihydro-quinazolin-2-yl)-methyl-amino]-methyl}-benzyl)-2-methoxy-N-methyl-acetamide]",150 to 151.2
7,"CNC(C)c1cccc(CN(C)c2nc(=O)c3c(C)c(OC)c(OC)cc3[nH]2)c1 (centres unmarked) [Example 64, 6,7-Dimethoxy-5-methyl-2-{methyl[3-(1-methylamino-ethyl)-benzyl]-amino}-1H-quinazolin-4-one]",161.6 to 164.1
8,"COc1cc2[nH]c(N(C)Cc3cccc(N4CCC(OC)C4=O)c3)nc(=O)c2c(OC)c1OC (centres unmarked) [Example 20, 5,6,7-Trimethoxy-2-{[3-(3-methoxy-2-oxo-prrolidin-1-yl)-benzyl]-methyl-amino}-1H-quinazolin-4-one]",90.2 to 94.7
9,COCCNCc1cccc(CN(C)c2nc(=O)c3c(C)c(OC)c(OC)cc3[nH]2)c1 [Example 77],150 to 152.1
10,"COc1cc2[nH]c(N(C)Cc3cccc(OCC(O)CO)c3)nc(=O)c2c(C)c1OC (centres unmarked) (as salt: HCl) [Example 7, 2-{[3-(2,3-Dihydroxy-propoxy)-benzyl]-methyl-amino}-6,7-dimethoxy-5-methyl-1H-quinazolin-4-one]",220 to 224
11,"COc1cc2[nH]c(N(C)Cc3cccc(C(C)N(C)C)c3)nc(=O)c2c(OC)c1OC (centres unmarked) [Example 62, 2-{[3-(1-Dimethylamino-ethyl)-benzyl]-methyl-amino}-5,6,7-trimethoxy-1H-quinazolin-4-one]",122.6 to 125.5
12,"COc1cc2[nH]c(N(C)Cc3cccc(CN4CCC(O)CC4)c3)nc(=O)c2c(C)c1OC [Example 40, 2-{[3-(4-Hydroxy-piperidin-1-ylmethyl)-benzyl]-methyl-amino}-6,7-dimethoxy-5-methyl-1H-quinazolin-4-one]",159.2 to 159.6
13,"COc1cc2[nH]c(N(C)Cc3cccc(CN(C)S(C)(=O)=O)c3)nc(=O)c2c(C)c1OC [Example 17, N-(3-{[(6,7-Dimethoxy-5-methyl-4-oxo-1,4-dihydro-quinazolin-2-yl)-methyl-amino]-methyl}-benzyl)-N-methyl-methanesulfonamide]",223.9 to 225.9
14,"COc1cc2[nH]c(N(C)Cc3cccc(C(C)N(C)C)c3)nc(=O)c2c(C)c1OC (centres unmarked) [Example 61, 2-{[3-(1-Dimethylamino-ethyl)-benzyl]-methyl-amino}-6,7-dimethoxy-5-methyl-1H-quinazolin-4-one]",137 to 140.1
15,"COCCN1Cc2ccc(CN(C)c3nc(=O)c4c(C)c(OC)c(OC)cc4[nH]3)cc2C1 [Example 19, 6,7-Dimethoxy-2-{[2-(2-methoxy-ethyl)-2,3-dihydro-1H-isoindol-5-ylmethyl]-methyl-amino}-5-methyl-1H-quinazolin-4-one]",173.3 to 177.9

# Further lines, results first:
row,melting point [°C],SMILES
1,148 to 150,"COc1cc2[nH]c(N(C)Cc3cccc(/N=C(\C(C)C)N(C)C)c3)nc(=O)c2c(OC)c1OC [Example 198, N,N-Dimethyl-N′-(3-{[methyl-(5,6,7-trimethoxy-4-oxo-1,4-dihydro-quinazolin-2-yl)-amino]-methyl}-phenyl)-isobutyramidine]"
2,170.6 to 172.5,"COc1cc2nc(N(C)Cc3cccc(/N=C(\C)N(C)C)c3)[nH]c(=O)c2c(C)c1OC (as salt: salt) [Example G-1, N′-(3-{[(6,7-Dimethoxy-5-methyl-4-oxo-1,4-dihydro-quinazolin-2-yl)-methyl-amino]-methyl}-phenyl)-N,N-dimethyl-acetamidine]"
3,199 to 201,"COc1cc2[nH]c(N(C)Cc3cccc(/N=C(/C)N(C)C)c3)nc(=O)c2c(OC)c1OC [Example 197, N,N-Dimethyl-N′-(3-{[methyl-(5,6,7-trimethoxy-4-oxo-1,4-dihydro-quinazolin-2-yl)-amino]-methyl}-phenyl)acetamidine]"
4,175 to 195,"COc1cc2[nH]c(N(C)Cc3cccc(CC4CCN(C)CC4)c3)nc(=O)c2c(OC)c1OC (as salt: HCl) [Example 127, 5,6,7-Trimethoxy-2-{methyl-[3-(1-methyl-piperidin-4-ylmethyl)-benzyl]-amino}-1H-quinazolin-4-one]"
5,185 to 186,"COc1cc2[nH]c(N(C)Cc3cccc(N=CN(C)C)c3)nc(=O)c2c(C)c1OC [Example G-30, N′-(3-{[(6,7-Dimethoxy-5-methyl-4-oxo-1,4-dihydro-quinazolin-2-yl)-methyl-amino]-methyl}-phenyl)-N,N-dimethyl-formamidine]"
6,191.3 to 192.8,"COc1cc2[nH]c(N(C)Cc3cccc(Nc4nc(C)cc(Cl)n4)c3)nc(=O)c2c(OC)c1OC [Example 219, 2-{[3-(4-Chloro-6-methyl-pyrimidin-2-ylamino)-benzyl]-methyl-amino}-5,6,7-trimethoxy-1H-quinazolin-4-one]"
7,138.1 to 141,"COc1cc2[nH]c(N(C)Cc3cccc(N(CCO)CCO)c3)nc(=O)c2c(OC)c1OC [Example 190, 2-({3-[Bis(2-hydroxy-ethyl)-amino]-bewnzyl}-methyl-amino)-5,6,7-trimethoxy-1H-quinazolin-4-one]"
8,224.6 to 225.5,"CCc1c(OC)c(OC)cc2[nH]c(N(C)Cc3cccc(/N=C(\C)N(C)C)c3)nc(=O)c12 [Example 199, N′-(3-{[(5-Ethyl-6,7-dimethoxy-4-oxo-1,4-dihydro-quinazolin-2-yl)-methyl-amino]-methyl}-phenyl)-N,N-dimethyl-acetamidine]"
9,268 to 269.5,"COc1cc2[nH]c(N(C)Cc3cccc(N)c3)nc(=O)c2c(C)c1OC [Example B-1, 2-[(3-Amino-benzyl)-methyl-amino]-6,7-dimethoxy-5-methyl-1H-quinazolin-4-one]"
10,131.5 to 168,"COc1cc2[nH]c(N(C)Cc3cccc(NC(=O)N(C)C)c3)nc(=O)c2c(C)c1OC [Example 180, 3-(3-{[(6,7-Dimethoxy-5-methyl-4-oxo-1,4-dihydro-quinazolin-2-yl)-methyl-amino]-methyl}-phenyl)-1,1-dimethyl-urea]"
11,212.3 to 215.1,"COc1cc2[nH]c(N(C)Cc3cccc(O)c3)nc(=O)c2c(OC)c1OC [Example 155, 2-[(3-Hydroxy-benzyl)-methyl-amino]-5,6,7-trimethoxy-1H-quinazolin-4-one]"
12,220.8 to 224.1,"COc1cc2[nH]c(N(C)Cc3cccc(-n4cccn4)c3)nc(=O)c2c(C)c1OC [Example 232, 6,7-Dimethoxy-5-methyl-2-[methyl-(3-pyrazol-1-yl-benzyl)-amino]-1H-quinazolin-4-one]"
13,185 to 186,COc1cc2[nH]c(N(C)Cc3cccc(/N=C/N(C)C)c3)nc(=O)c2c(C)c1OC [Example 196]
14,163 to 164.9,"COCCNS(=O)(=O)c1cccc(CN(C)c2nc(=O)c3c(C)c(OC)c(OC)cc3[nH]2)c1 [Example 131, 3-{[(6,7-Dimethoxy-5-methyl-4-oxo-1,4-dihydro-quinazolin-2-yl)-methyl-amino]-methyl}-N-(2-methoxy-ethyl)-benzenesulfonamide]"
15,245 to 249.5,"COc1cc2[nH]c(N(C)Cc3cccc(-n4cnc(C)c4)c3)nc(=O)c2c(C)c1OC [Example 230, 6,7-Dimethoxyt-5-methyl-2-{methyl-[3-(4-methyl-imidazol-1-yl)-benzyl]-amino}-1H-quinazolin-4-one]"
16,252.9 to 254.35,"COc1cc2[nH]c(N(C)Cc3cccc(O)c3)nc(=O)c2c(C)c1OC [Example 154, 2-[(3-Hydroxy-benzyl)-methyl-amino]-6,7-dimethoxy-5-methyl-1H-quinazolin-4-one]"
17,224.6 to 225.5,"CCc1c(OC)c(OC)cc2[nH]c(N(C)Cc3cccc(N=C(C)N(C)C)c3)nc(=O)c12 [Example G-33, N′-(3-{[(5-Ethyl-6,7-dimethoxy-4-oxo-1,4-dihydro-quinazolin-2-yl)-methyl-amino]-methyl}-phenyl)-N,N-dimethyl-acetamidine]"
18,198.6 to 199.8,COc1cc2[nH]c(N(C)Cc3cccc(N4C(=O)CCC4=O)c3)nc(=O)c2c(C)c1OC [Example 259]
19,200.3 to 200.9,"CCN1CCN(c2cccc(CN(C)c3nc(=O)c4c(OC)c(OC)c(OC)cc4[nH]3)c2)C1=O [Example 265, 2-{[3-(3-Ethyl-2-oxo-imidazolidin-1-yl)-benzyl]-methyl-amino}-5,6,7-trimethoxy-1H-quinaozlin-4-one]"
20,255.5 to 258.9,"COc1cc2[nH]c(N(C)Cc3cccc(-c4ncc[nH]4)c3)nc(=O)c2c(C)c1OC [Example 248, 2-{[3-(1H-Imidazol-2-yl)-benzyl]-methyl-amino}-6,7-dimethoxy-5-methyl-1H-quinazolin-4-one]"
